Experimental data from ChEMBL document CHEMBL5046216, “Disrupting Tryptophan in the Central Hydrophobic Region Selectively Mitigates Immunomodulatory Activities of the Innate Defence Regulator Peptide IDR-1002” (J Med Chem, 2021).

Experiments:
[1] = Retention time of the compound by HPLC analysis; format: physicochemical
[2] = system: HBEC3-KT; test: Cytotoxicity against human HBEC3-KT incubated for 24 hrs by LDH assay; format: functional; note: test concentration or dose not given here

Retention_time [1] | Substance | Activity [2]
18.05 min | H-VQRWLIVWVIRK-OH | 50%
17.4 min | H-VLRWLIVWRIRK-OH | 50%
18.47 min | H-VQRWLIVWRIWK-OH | 50%
